The source of these data is patent US20250163038A1, “CBL-B MODULATORS AND USES THEREOF” (Nimbus Clio, Inc., priority 2021, published 2025).

For assay [1], the target named is Recombinant human Cbl-b (aa 36-427) (Homo sapiens, UniProt Q13191). The assay can be described thus: Cbl-b Biochemical Assay (TR-FRET). The note with it: read-out: TR-FRET hCbl-b IC50.
In assay [2] the test system is Jurkat (clone E6-1) cells with NFAT luciferase reporter. The assay can be described thus: Jurkat reporter assay (NFAT Luciferase). The class given is cell-based. The note with it: Jurkat NFAT luciferase reporter cells, anti-CD3 stimulation, 6 hr, read-out: Jurkat NFAT EC50. (In a reporter assay the amount or activity of a reporter protein is the signal.)
For assay [3], the target named is T1, Recombinant human c-Cbl (aa 47-435) (Homo sapiens, UniProt P22681).
T1 sequence (P22681 47-435): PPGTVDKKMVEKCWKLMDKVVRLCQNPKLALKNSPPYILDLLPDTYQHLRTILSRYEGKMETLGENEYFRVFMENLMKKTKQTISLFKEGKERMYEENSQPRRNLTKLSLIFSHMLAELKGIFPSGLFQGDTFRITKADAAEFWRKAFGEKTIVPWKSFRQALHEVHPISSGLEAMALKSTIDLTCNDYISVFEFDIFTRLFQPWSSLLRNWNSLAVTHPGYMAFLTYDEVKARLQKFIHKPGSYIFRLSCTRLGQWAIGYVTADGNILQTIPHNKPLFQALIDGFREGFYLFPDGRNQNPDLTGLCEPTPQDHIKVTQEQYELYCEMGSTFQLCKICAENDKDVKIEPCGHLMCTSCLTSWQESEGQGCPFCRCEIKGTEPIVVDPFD
Nature of the assay: c-Cbl Biochemical Assay (TR-FRET). The note with it: hc-Cbl Biochemical Assay (TR-FRET); read-out: TR-FRET hcCbl IC50.

pEC50, pIC50: −log10 of the molar value. Read-outs that look alike come from different tables or passages of the source.

Recombinant human Cbl-b (aa 36-427), sequence (Q13191 36-427): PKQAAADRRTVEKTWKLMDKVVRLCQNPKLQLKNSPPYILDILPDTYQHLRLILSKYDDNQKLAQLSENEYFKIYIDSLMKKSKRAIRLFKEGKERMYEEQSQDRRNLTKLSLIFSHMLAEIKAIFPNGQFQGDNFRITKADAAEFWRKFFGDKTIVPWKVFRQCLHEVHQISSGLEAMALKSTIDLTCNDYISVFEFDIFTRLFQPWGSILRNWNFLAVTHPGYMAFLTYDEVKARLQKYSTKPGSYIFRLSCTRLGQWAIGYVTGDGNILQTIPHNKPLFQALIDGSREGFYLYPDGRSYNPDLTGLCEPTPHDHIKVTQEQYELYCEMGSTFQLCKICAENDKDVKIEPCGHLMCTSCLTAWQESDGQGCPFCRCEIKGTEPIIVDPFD

Consider `CC(c1cc(C(F)(F)F)c2[nH]c(-c3cccc(C4(Cc5nncn5C)COC4)c3)nc2c1)N1CCC2(CC2)C1` (stereo not drawn) [ACK-3, 5-(1-(5-Azaspiro[2.4]heptan-5-yl)ethyl)-2-(3-(3-((4-methyl-4H-1,2,4-triazol-3-yl)methyl)oxetan-3-yl)phenyl)-7-(trifluoromethyl)-1H-benzo[d]imidazole], for which the figures for the negative logarithm of the IC50 (pIC50) in assay [1] and in assay [3] were 6.00 to 6.70 and 4.30 to 5.00, respectively. The pEC50 (in general, the EC50 on a negative log10 scale, so that one unit is a factor of ten) in assay [2] (Homo sapiens) is 5.00 to 6.00.
The corresponding values for `C[C@@H](c1cc(C(F)(F)F)c2[nH]c(-c3cccc(C4(Cc5nncn5C)COC4)c3)nc2c1)N1CCC2(CC2)C1` [ACM-1, (S)-5-(1-(5-Azaspiro[2.4]heptan-5-yl)ethyl)-2-(3-(3-((4-methyl-4H-1,2,4-triazol-3-yl)methyl)oxetan-3-yl)phenyl)-7-(trifluoromethyl)-1H-benzo[d]imidazole] are 6.00 to 6.70, 4.30 to 5.00 and 5.00 to 6.00.
Turning to `C[C@H](c1cc(C(F)(F)F)c2[nH]c(-c3cccc(C4(Cc5nncn5C)COC4)c3)nc2c1)N1CCC2(CC2)C1` [ACN-1, (R)-5-(1-(5-Azaspiro[2.4]heptan-5-yl)ethyl)-2-(3-(3-((4-methyl-4H-1,2,4-triazol-3-yl)methyl)oxetan-3-yl)phenyl)-7-(trifluoromethyl)-1H-benzo[d]imidazole], the negative logarithm of the IC50 (pIC50) in assay [1] and in assay [3] was 6.00 to 6.70 each time. Further, in assay [2] (Homo sapiens), the negative-log EC50 (pEC50) is 5.00 to 6.00.
With `Cn1cnnc1-c1cc(F)ccc1-c1cc(-c2nc3cc(CN[C@@H]4CCC[C@@H]4O)cc(C(F)(F)F)c3o2)cc(C2CC2)c1` [ACZ-8, (1S,2R)-2-[({2-[5-Cyclopropyl-4′-fluoro-2′-(4-methyl-1,2,4-triazol-3-yl)-[1,1′-biphenyl]-3-yl]-7-(trifluoromethyl)-1,3-benzoxazol-5-yl}methyl)amino]cyclopentan-1-ol], the negative-log IC50 (pIC50) in assay [1] and in assay [3] was > 6.70 each time. For the same molecule, the pEC50 in assay [2] (Homo sapiens) was > 6.70.
As for `Cn1cnnc1-c1cc(F)ccc1-c1cccc(-c2nc3cc(CN4CC[C@H](O)C4)cc(C(F)(F)F)c3o2)c1` [AD-2, (S)-1-((2-(4′-Fluoro-2′-(4-methyl-4H-1,2,4-triazol-3-yl)-[1,1′-biphenyl]-3-yl)-7-(trifluoromethyl)benzo[d]oxazol-5-yl)methyl)pyrrolidin-3-ol], the pIC50 (usually the IC50 on a negative log10 scale, so that one unit is a factor of ten) is > 6.70 in assay [1] and 5.00 to 6.00 in assay [3]. Besides, the negative logarithm of the EC50 (pEC50) in assay [2] (Homo sapiens) is 5.00 to 6.00.
As to `Cn1cnnc1-c1cc(F)ccc1-c1cc(-c2nc3cc(CN[C@@H]4CCC[C@@H]4O)cc(C(F)(F)F)c3o2)nc(C2CC2)c1` [ADA-6, (1S,2R)-2-{[(2-{6-Cyclopropyl-4-[4-fluoro-2-(4-methyl-1,2,4-triazol-3-yl)phenyl]pyridin-2-yl}-7-(trifluoromethyl)-1,3-benzoxazol-5-yl)methyl]amino}cyclopentan-1-ol], the pIC50 in assay [1] and in assay [3] was > 6.70 in each case. In addition, the pEC50 in assay [2] (Homo sapiens) was > 6.70.
With `Cn1cnnc1-c1cc(Cl)ccc1-c1cccc(-c2nc3cc(CN[C@@H]4CCC[C@@H]4O)cc(C(F)(F)F)c3[nH]2)c1` [ADB-9, (1S,2R)-2-(((2-(4′-Chloro-2′-(4-methyl-4H-1,2,4-triazol-3-yl)-[1,1′-biphenyl]-3-yl)-7-(trifluoromethyl)-1H-benzo[d]imidazol-5-yl)methyl)amino)cyclopentan-1-ol], the pIC50 in assay [1] and in assay [3] was > 6.70 each time. The pEC50 in assay [2] (Homo sapiens) was > 6.70.
For the molecule `Cn1cnnc1[C@]1(c2cccc(-c3nc4cc(CN[C@@H]5CCC[C@@H]5O)cc(C(F)(F)F)c4o3)c2)C[C@@H](C)C1` [ADE-3, (1S,2R)-2-{[(2-{3-[(1r,3s)-3-Methyl-1-(4-methyl-1,2,4-triazol-3-yl)cyclobutyl]phenyl}-7-(trifluoromethyl)-1,3-benzoxazol-5-yl)methyl]amino}cyclopentan-1-ol], the pIC50 in assay [1] and in assay [3] was > 6.70 each time. Besides, the negative logarithm of the EC50 (pEC50) in assay [2] is > 6.70.
Consider `Cn1cnnc1-c1cc(Cl)ccc1-c1cccc(-c2nc3cc(CN[C@@H]4CCC[C@@H]4O)cc(C(F)(F)F)c3o2)c1` [ADI-3, (1S,2R)-2-[({2-[4′-Chloro-2′-(4-methyl-1,2,4-triazol-3-yl)-[1,1′-biphenyl]-3-yl]-7-(trifluoromethyl)-1,3-benzoxazol-5-yl}methyl)amino]cyclopentan-1-ol], for which the pIC50 in assay [1] and in assay [3] was > 6.70 in each case. The pEC50 in assay [2] (Homo sapiens) was > 6.70.
With `Cn1cnnc1-c1cc(Cl)ccc1-c1cccc(-c2nc3cc(CO)ccc3o2)c1` [ADK-1, {2-[4′-Chloro-2′-(4-methyl-1,2,4-triazol-3-yl)-[1,1′-biphenyl]-3-yl]-1,3-benzoxazol-5-yl}methanol], the pIC50 in assay [1] and in assay [3] was 5.00 to 6.00 in each case. Besides, in assay [2] (Homo sapiens), the negative-log EC50 (pEC50) is 4.30 to 5.00.
Consider `Cn1cnnc1-c1cc(Cl)ccc1-c1cccc(-c2nc3cc(CN[C@@H]4CCC[C@@H]4O)ccc3o2)c1` [ADL-2, (1S,2R)-2-[({2-[4′-Chloro-2′-(4-methyl-1,2,4-triazol-3-yl)-[1,1′-biphenyl]-3-yl]-1,3-benzoxazol-5-yl}methyl)amino]cyclopentan-1-ol], for which the pIC50 in assay [1] and in assay [3] was > 6.70 in each case. For the same molecule, the pEC50 in assay [2] (Homo sapiens) is > 6.70.
Consider `CCOc1cc(-c2ccc(F)cc2-c2nncn2C)cc(-c2nc3cc(CN[C@@H]4CCC[C@@H]4O)cc(OC)c3o2)n1` [ADM-14, (1S,2R)-2-{[(2-{6-Ethoxy-4-[4-fluoro-2-(4-methyl-1,2,4-triazol-3-yl)phenyl]pyridin-2-yl}-7-methoxy-1,3-benzoxazol-5-yl)methyl]amino}cyclopentan-1-ol], for which the pIC50 in assay [1] and in assay [3] was > 6.70 each time. In addition, the negative-log EC50 (pEC50) in assay [2] (Homo sapiens) was > 6.70.
Consider `COCCNCc1cc(C(F)(F)F)c2oc(-c3cccc([C@]4(c5nncn5C)C[C@@H](C)C4)c3)nc2c1` [ADN-1, (2-Methoxyethyl)[(2-{3-[(1r,3s)-3-methyl-1-(4-methyl-1,2,4-triazol-3-yl)cyclobutyl]phenyl}-7-(trifluoromethyl)-1,3-benzoxazol-5-yl)methyl]amine], for which the pIC50 in assay [1] is > 6.70; in assay [3], 6.00 to 6.70. Further, in assay [2] (Homo sapiens), the pEC50 is 6.00 to 6.70.
Turning to `C[C@H]1CCCN(Cc2cc(C(F)(F)F)c3oc(-c4cc(-c5ccc(F)cc5-c5nncn5C)cc(C5CC5)n4)nc3c2)C1` [ADO-1, 2-{6-Cyclopropyl-4-[4-fluoro-2-(4-methyl-1,2,4-triazol-3-yl)phenyl]pyridin-2-yl}-5-{[(3S)-3-methylpiperidin-1-yl]methyl}-7-(trifluoromethyl)-1,3-benzoxazole], the pIC50 in assay [1] and in assay [3] was > 6.70 in each case. For the same molecule, the pEC50 in assay [2] (Homo sapiens) was > 6.70.
As to `COC(=O)c1ccc2oc(-c3cc(-c4ccc(F)cc4-c4nncn4C)cc(C4CC4)n3)nc2c1` [ADP-1, Methyl 2-{6-cyclopropyl-4-[4-fluoro-2-(4-methyl-1,2,4-triazol-3-yl)phenyl]pyridin-2-yl}-1,3-benzoxazole-5-carboxylate], the negative-log IC50 (pIC50) in assay [1] and in assay [3] was 4.30 to 5.00 each time. Also, the negative-log EC50 (pEC50) in assay [2] (Homo sapiens) is 4.30 to 5.00.
Consider `Cn1cnnc1-c1cc(F)ccc1-c1cc(-c2nc3cc(CO)ccc3o2)nc(C2CC2)c1` [ADQ-1, (2-{6-Cyclopropyl-4-[4-fluoro-2-(4-methyl-1,2,4-triazol-3-yl)phenyl]pyridin-2-yl}-1,3-benzoxazol-5-yl)MeOH], for which the negative-log IC50 (pIC50) in assay [1] and in assay [3] was 5.00 to 6.00 throughout. For the same molecule, in assay [2] (Homo sapiens), the pEC50 is 4.30 to 5.00.
